The values below come from US20020028851A1, “Guanylhydrazones and their use to treat inflammatory conditions” (priority 1994, published 2002).

Like-named read-outs stand apart in the source and are kept apart here.

The test system of data set [1] is RAW 264.7 cells. As to the kind of experiment: Whole cell inhibition assay for arginine uptake. The format is cell-based, murine. The settings on record: γIFN+LPS, 8 hours. The procedure:
In the embodiment described in the working example herein, a test population of cells was cultured for about 3 hours so that the cells became firmly adherent. Various concentrations of the potential inhibitors were then added to parallel cultures. One hour later the macrophage stimulators, e.g. including, but not limited to LPS and γIFN, were added. Eighteen hours later the cells were washed in a warm balanced salt solution supplemented with glucose. Carrier-free radiolabelled arginine was added; after 5 minutes, active uptake of arginine was stopped by washing the cell three times with buffer, chilled to 0° C., containing 10 mM unlabeled arginine to displace any externally bound label. The contents of the washed cells are solubilized in 100 μl of formic acid and counted by standard techniques.
RAW 264.7 cells are plated in standard 96-well microculture plates at a concentration of 10^5/well and allowed to adhere for from 2 hours to overnight. The medium is then replaced with medium containing the compound to be tested. One hour later, the medium is supplemented so as to contain 25 U/ml γIFN and 0.1 μg/ml LPS and the cultures incubated a further. The cells are then rinsed twice in HEPES- buffered Krebs salt solution with 0.1% glucose. Carrier-free tetra-^3H-arginine is added to each well (2.5 μCi/well with specific activity of […]) and the active uptake of arginine is allowed to continue for a 5 minute period after which the cells are rapidly cooled to 0° C. by lavage with iced saline containing 10 mM unlabeled arginine to displace any externally bound label. The contents of the washed cells are solubilized in 100 Al of formic acid and counted by standard techniques. In subsequent experiments to determine the acitivity of the inhibitors, incubations were performed for 8 hours.
(§1) This section describes experiments that measure the concentration of Compound No. 14 needed to inhibit arginine uptake and NO output. The techniques employed were described in section 7.1 supra.

Data set [2] has as its system RAW 264.7 cells. Put plainly: Whole cell inhibition assay for urea output. Type of data set: cell-based, murine. As to conditions: for urea % suppression of induced production: γIFN+LPS, 18 hours; for IC50: interpolated, γIFN+LPS-activated RAW 264.7, 18 hours, read-out: I.C.50 (in parenthesis), inhibition of urea production. The method, then: (§2) RAW 264.7 cells are plated in microculture wells at 1×10^6/ml in RPMI 1640 with 10% FBS and otherwise standard culture conditions and allowed to adhere for 5 hours. They are then activated with 25 U/ml γIFN and 0.1 μg/ml LPS in the presence of test inhibitors. The urea concentration present in the supernatant media, after 18 hours of culture, is determined by a colorimetric blood urea nitrogen diacetylmonoxime assay performed on an aliquot of the culture supernatant (Sigma Chem. Co., St. Louis, Mo.) and inhibition is expressed as the percentage urea compared to that of a parallel control culture treated identically except that the concentration of added inhibitor is zero.
(§3) Various concentrations of the test compounds are included in the media of the stimulated RAW 264.7 cells in culture. The concentration of urea and/or nitrite after 18 hours of activated culture is determined and compared to the uninhibited control value obtained from at least one parallel culture. The fractional reduction is calculated for each concentration of inhibitor and the IC50 (concentration giving 50% reduction) is interpolated. Compounds were dissolved in media with mild heat (60° C.). Those with limited solubility were dissolved in base. The concentration of stock solutions of those compounds which were not completely soluble was determined by OD280.

Data set [3] concerns RAW 264.7 cells. As to the kind of experiment: Whole cell inhibition assay for NO (nitrite) output. The format is cell-based, murine. The settings on record: γIFN+LPS, 18 hours. The method, then: as §2
The production of nitrite is determined by assay of the same tissue culture supernatant by means of a calorimetric assay. Briefly, 4 parts of test solution containing 1% (w/v) sulfanilamide, 0.1% naphthylethylenediamine di-HCl (Griess Reagent), 2.5% H3PO4 and one part media are mixed, incubated for 10 minutes and the absorbance at 560 nm determined. The nitrite concentrations are interpolated from reference curves prepared using NaNO2.
as §3, §1

Data set [4] is described as follows: Solubility on preparing test solutions. The format is physicochemical. The settings on record: preparation of test solutions. The procedure: as §3
In data set [5] the test system is Endothelial Derived Relaxing Factor (EDRF) activity. As to the kind of experiment: Acetylcholine-induced hypotensive (EDRF) response. The format is in vivo, rats. The settings on record: 10 mg/Kg single intra-arterial dose; blood pressure 30 sec after ACh. The method, then: Female Sprague-Dawley rats (225-250 g body weight) were anesthetized with nembutal (50 mg/Kg, i.p.), a tracheostomy tube was inserted, and the carotid artery and jugular vein cannulated by standard methods using polyethylene tubing (PE 50). Tracey, K. J., et al., 1986, SCIENCE 234, 470-474. Blood pressure was recorded continuously with a pressure transducer and recorder (Model RS-3200, Gould Inc.,). In the experiment shown here, animals received a single sterile intra-arterial dose of either N^G-methyl-L-arginine (NMA; Sigma; 10 mg/Kg), Compound No. 14 (50 mg/Kg), or vehicle (0.4 ml). Acetylcholine (ACh) diluted in LPS-free sterile water was administered via the jugular vein cannula at the doses indicated. The solutions were diluted to produce a constant injectable volume of 1 ml/Kg body weight.
The hypotensive (EDRF) response was measured as the decline in mean arterial blood pressure recorded 30 sec after administration of ACh. The number of animals studied at each dose of acetylcholine was 4-6 for each experimental condition; data are expressed as the mean +s.e.m.

Another data set has as its system TNF. As to the kind of experiment: TNF production by LPS/γIFN-stimulated RAW 264.7 cells. Type of data set: cell-based, murine. The settings on record: even at concentrations of 10 μM. The procedure: RAW 264.7 cells were plated in standard 6-well culture plates at a density of 10^6/well and allowed to adhere for from 2 hr to overnight. The medium was then replaced with medium containing the compound to be tested. One hour later, the medium was supplemented so as to contain 25 U/ml γIFN and 0.1 μg/ml LPS and the cultures incubated a further 18 hr. The medium was then collected, and cell debris removed by centrifugation. This conditioned supernatant was then assayed for the presence of TNF using standard methodologies: L929 cell cytotoxicity bioassay, radioimmunoassay or ELISA, and Western blotting with antibodies against murine TNF.

The mark [6] stands for this setting: dose 23.3 (dose unit not given).

Take `CC(=NNC(=N)N)c1cccc(OCCOc2cccc(C(C)=NNC(=N)N)c2)c1.Cl.Cl` [Compound 15, 2,2′-[1,2-ethanediylbis(oxy-3,1-phenyleneethylidyne)] bishydrazinecarboximidamide dihydrochloride]: the figures for the “arginine transport % suppression of induced peak” value (shortened to “arginine transport % suppression”) in the data set on RAW 264.7 cells [1] (dose 5 μM), in the data set with RAW 264.7 cells [1] (dose 15.0 μM) and in the data set with RAW 264.7 cells [1] (dose 150 μM) were 10%, 35% and 100%, respectively. The “urea % suppression of induced production” value in the data set on RAW 264.7 cells [2] (dose 5 μM) was 8%; in the data set on RAW 264.7 cells [2] (dose 15.0 μM) it was 100%; with RAW 264.7 cells [2] (dose 150 μM), 100%. In the data set on RAW 264.7 cells [2], the IC50 stood at 10 µM. For the same molecule, the “no2/no3 % suppression of induced production” value (“no2/no3 % suppression” for short) in the data set on RAW 264.7 cells [3] (dose 5 μM) was 0%; in the data set on RAW 264.7 cells [3] (dose 15.0 μM), 9%; with RAW 264.7 cells [3] (dose 150 μM) it was 100%. Besides, the “Dissolved in (solubility)” value in data set [4] is “Not soluble;”.

As usually defined, the melting point is the temperature of the solid-liquid transition. `Cl.Cl.N=C(N)NN=Cc1cccc(OCCOc2cccc(C=NNC(=N)N)c2)c1` [Compound 16, 3,3′-(ethylenedioxy)dibenzaldehyde bis(amidinohydrazone) dihydrochloride] came in with a melting point of 264 to 266 °C. Besides, the “arginine transport % suppression” value with RAW 264.7 cells [1] (dose 5 μM) is listed as 26%. Also, the “arginine transport % suppression” value in the data set with RAW 264.7 cells [1] (dose 25 μM) turned out to be 44%. Also, the “arginine transport % suppression” value in the data set with RAW 264.7 cells [1] (dose 250 μM) came to 100%. For the same molecule, the IC50 with RAW 264.7 cells [2] (Mus musculus, RAW264.7) lay in the range of 1 to 10 µM. For the same molecule, in the data set with RAW 264.7 cells [2] (dose 5 μM), the “urea % suppression of induced production” value stood at 40%. Moreover, the “urea % suppression of induced production” value in the data set with RAW 264.7 cells [2] (dose 25 μM) was 100%. Further, in the data set with RAW 264.7 cells [2] (dose 250 μM), the “urea % suppression of induced production” value is given as 100%. For the same molecule, in the data set on RAW 264.7 cells [3] (dose 5 μM), the “no2/no3 % suppression” value came out at 17%. For the same molecule, the “no2/no3 % suppression” value in the data set on RAW 264.7 cells [3] (dose 25 μM) amounted to 90%. Besides, in the data set on RAW 264.7 cells [3] (dose 250 μM), the “no2/no3 % suppression” value is 100%. In addition, the “Dissolved in (solubility)” value in data set [4] was “Not soluble;”.

As to `COc1cc(C=NNC(=N)N)ccc1OCCOc1ccc(C=NNC(=N)N)cc1OC.Cl.Cl` [Compound 17, 4,4′-(ethylenedioxy)di-m-anisaldehyde bis(amidinohydrazone) dihydrochloride], the melting point was 322 to 323 °C (dec.). For the same molecule, the IC50 in the data set with RAW 264.7 cells [2] (Mus musculus, RAW264.7) was 150 µM. For the same molecule, in the data set with RAW 264.7 cells [2] (dose 177 μM), the “urea % suppression of induced production” value is reported as 54-100%. The “no2/no3 % suppression” value in the data set on RAW 264.7 cells [3] (dose 177 μM) is 71-87%. Further, the “Dissolved in (solubility)” value in data set [4] is “Not soluble”.

The molecule `COc1ccc(C=NNC(=N)N)cc1OCCCOc1cc(C=NNC(=N)N)ccc1OC.Cl.Cl` [Compound 18, 3,3′-(trimethylenedioxy)di-p-anisaldehyde bis(amidinohydrazone) dihydrochloride] gave a melting point of 233 to 235 °C. Moreover, the IC50 in the data set with RAW 264.7 cells [2] (Mus musculus, RAW264.7) turned out to be 25 µM. Moreover, in the data set on RAW 264.7 cells [2] (dose 233 μM), the “urea % suppression of induced production” value came out at 100%. For the same molecule, the “urea % suppression of induced production” value in the data set on RAW 264.7 cells [2] (dose 7.7 (dose unit not given)) is reported as 9%. Also, in the data set with RAW 264.7 cells [2] (setting [6]), the “urea % suppression of induced production” value came out at 30%. Also, the “no2/no3 % suppression” value in the data set on RAW 264.7 cells [3] (dose 233 μM) was determined as 100%. Moreover, the “no2/no3 % suppression” value in the data set on RAW 264.7 cells [3] (dose 7.7 (dose unit not given)) was found to be 0%. For the same molecule, the “no2/no3 % suppression” value in the data set with RAW 264.7 cells [3] (setting [6]) turned out to be 13%. Moreover, the “Dissolved in (solubility)” value in data set [4] was “Not soluble”.

Turning to `CNC(=N)NCCC[C@H](N)C(=O)O` [NMA, N^G-methyl-L-arginine, reference compound], the “acetylcholine-induced EDRF activity in vivo” value in data set [5] is recorded as “inhibited”. Moreover, the “inhibition of the production of TNF” value in the data set on TNF is given as “did not inhibit”.
